Paper PMC12584752, “Covalent fragment screening to inhibit the E3 ligase activity of bacterial NEL enzymes SspH1 and SspH2” (RSC Chemical Biology, 2025)

Columns and labels:
[1] = target: SspH1 (161–700) (Salmonella typhimurium, UniProt D0ZVG2); assay: Substrate (PKN1) ubiquitination assay; type: biochemical; set-up: SspH1 (5 μM, 161–700) was prelabelled at 350 rpm, RT for 18 hours; His-tag (N, cleaved yes); made in house; host or cells: E. coli BL21; settings: SspH1 pre-labelled with compound overnight at RT; 0–30 minutes
Chain of SspH1 (161–700) (D0ZVG2 161-700): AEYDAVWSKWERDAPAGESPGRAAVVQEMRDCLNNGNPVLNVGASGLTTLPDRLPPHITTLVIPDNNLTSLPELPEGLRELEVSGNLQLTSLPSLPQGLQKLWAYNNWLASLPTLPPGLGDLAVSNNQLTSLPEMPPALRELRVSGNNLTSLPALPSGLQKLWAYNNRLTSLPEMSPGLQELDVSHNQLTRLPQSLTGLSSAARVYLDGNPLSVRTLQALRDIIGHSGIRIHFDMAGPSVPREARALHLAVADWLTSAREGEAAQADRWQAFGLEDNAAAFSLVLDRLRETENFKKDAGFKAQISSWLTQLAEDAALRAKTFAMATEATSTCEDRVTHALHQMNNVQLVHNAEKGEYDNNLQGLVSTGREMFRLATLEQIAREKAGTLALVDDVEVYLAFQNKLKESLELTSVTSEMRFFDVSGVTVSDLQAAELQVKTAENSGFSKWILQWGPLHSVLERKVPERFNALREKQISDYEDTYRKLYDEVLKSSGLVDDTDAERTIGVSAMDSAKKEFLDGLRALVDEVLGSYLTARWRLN
Procedure: Fig. 4 SspH1 in vitro inhibition with compounds 6 and 7. (A) Discharge assay schematic; (B) E2–Ub discharge time course assay with SspH1 pre-treated with either DMSO or compounds 6 or 7. UbcH5A–Ub-cy3 (1 μM) was incubated at RT for 0–30 minutes with SspH1 (residues 161–700, 50 nM) which had been pre-labelled with 6 or 7 at RT overnight. (C) Substrate ubiquitination assay schematic; (D) PKN1 ubiquitination time course assay with SspH1 pre-treated with either DMSO or compounds 6 or 7. A reaction of UBA1 (0.1 μM), UbcH5A (2 μM), ubiquitin (20 μM), PKN1 HR1b (2 μM, residues 122–199) and 10 mM ATP was incubated at RT for 0–30 minutes with SspH1 (residues 161–700, 0.5 μM) which had been pre-labelled with 6 or 7 at RT overnight.
Alternatively, substrate ubiquitination can be followed in vitro using a reconstituted ubiquitin enzymatic cascade, where recombinant ubiquitin, E1, E2, E3 and substrate are incubated with ATP (Fig. 4C). With SspH1, E3 ligase activity can then be observed by ubiquitination of its substrate PKN1.[25] This assay represents a higher order of complexity and involves three enzymes with catalytic cysteines (E1, E2 and E3) and is closer to in situ E3 activity. We compared SspH1 ubiquitination activity when SspH1 was pre-treated with DMSO or compound 6 or 7 (Fig. 4D), again overnight at room temperature to ensure complete labelling. […]

[2] = tested on: human cell lysate (HEK293T); assay: IA-DTB chemoproteomics, proteome-wide engagement in lysate; type: binding; settings: engaged peptides log2 CR ≤−1, P-value ≤0.05 vs DMSO
Procedure: HEK293T lysate supplemented with recombinant SspH1 (161–700) and SspH2 (166–783) was treated with a dilution series […] of either compound 6 or 7 for four hours at RT. Following compound treatments, we used an iodoacetamide-desthiobiotin (IA-DTB) competitive chemoproteomics workflow to assess cysteine engagement.[52] Comparison of DMSO treated lysate with compound treated lysate enabled identification of peptides where IA-DTB labelling of cysteines was blocked due to fragment engagement (Fig. S5). […] Competition of the SspH2 C580 peptide occurred at lower concentrations compared to the SspH1 C492 peptide, which corroborated our previous kinetics experiments that both compounds label SspH2 faster than SspH1 (Fig. S4).
A pellet of 50 × 10^6 HEK293T cells was resuspended in 5 mL lysis buffer (50 mM HEPES pH 8.0, 150 mM NaCl, 1% IGEPAL, 0.1% SDS, 0.5% Na-deoxycholate, supplemented with protease inhibitor cocktail (Sigma-Aldrich, P8340)). The lysate was sonicated and centrifuged (10 min, 17 000 × g) and the soluble fraction isolated. Protein concentrations were measured using a Rapid BCA Gold Protein Assay Kit (Thermo Scientific, A53226) and diluted to 0.75 mg mL^−1 with lysis buffer. The lysate was then spiked with 0.2 μM of each recombinant SspH1 (aa 161–700) and SspH2 (aa 166–783). […]

For `Cc1cc(-c2nc3ccccc3n2C2CCN(C(=O)CCl)CC2)cc(C)c1O.Cl` [compound 6], the PKN1 ubiquitination [1] was “completely abrogated” and the “proteome-wide labelling in human cell lysate” value [2] was “promiscuous protein labellers”.
`Cl.O=C(CCl)N1CCC(n2c(-c3ccc(C(F)(F)F)cc3)nc3ccccc32)CC1` [compound 7] was tested, and the PKN1 ubiquitination [1] was “completely abrogated” and the “proteome-wide labelling in human cell lysate” value [2] was “promiscuous protein labellers”.
